Earlier results in patent US20090202442A1, “Enerceutical activation of the alternative cellular energy (ACE) pathway in therapy of diseases” (priority 2008, published 2009).

Test system: herpes simplex virus (HSV), herpes zoster virus (HZV) and human papillomavirus (HPV) infections

Structure (SMILES): Cc1cc2nc3ccc(N(C)C)cc3nc2cc1N.Cl [neutral red]
- healing of active skin lesions (neutral red dye triggered UV fluorescence, HSV, HZV, HPV lesions): successfully used in expediting the healing
- future outbreaks of recurrent herpes (patients with prior history of recurrent herpes, treated when no active lesion present): successfully used in preventing future outbreaks
